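Method: 48-hour compound exposure of cells in 96-well plates, five concentrations, linear interpolation of endpoints. TGI is the concentration that stops growth completely.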
Key:
Test in all cases: NCI tumour cell line growth inhibition, 48 h
[1] = test system: M19-MEL melanoma
[2] = test system: DMS 114 small cell lung
[3] = test system: LOX IMVI melanoma
[4] = test system: ACHN renal
[5] = test system: NCI-H226 lung
[6] = test system: HOP-18 NSCLC
[7] = test system: HCC-2998 colon
[8] = test system: 786-0 renal
[9] = test system: A498 renal
[10] = test system: SF-295 CNS
[11] = test system: HCT-116 colon
[12] = test system: DMS 273 small cell lung
[13] = test system: SK-MEL-2 melanoma
[14] = test system: SF-539 CNS
[15] = test system: SK-MEL-5 melanoma
[16] = test system: TK-10 renal
[17] = test system: KM20L2 colon
[18] = test system: MOLT-4 leukemia
[19] = test system: SNB-19 CNS
[20] = test system: SNB-78 CNS
[21] = test system: EKVX NSCLC
[22] = test system: HL-60(TB) leukemia
[23] = test system: OVCAR-5 ovarian
[24] = test system: SR leukemia
[25] = test system: SK-OV-3 ovarian
[26] = test system: IGROV1 ovarian
[27] = test system: SW-620 colon
[28] = test system: UO-31 renal
[29] = test system: SN12C renal
[30] = test system: OVCAR-3 ovarian
[31] = test system: DLD-1 colon
[32] = test system: UACC-257 melanoma
[33] = test system: MALME-3M melanoma
[34] = test system: UACC-62 melanoma
[35] = test system: KM12 colon
[36] = test system: RPMI-8226 leukemia
[37] = test system: HOP-92 NSCLC
[38] = test system: OVCAR-8 ovarian
[39] = test system: HCT-15 colon
[40] = test system: SK-MEL-28 melanoma
[41] = test system: M14 melanoma
[42] = test system: RXF 393 renal
[43] = test system: K-562 leukemia
[44] = test system: U251 CNS
[45] = test system: SNB-75 CNS
[46] = test system: HOP-62 NSCLC
[47] = test system: NCI-H23 lung
[48] = test system: NCI-H522 lung
[49] = test system: CAKI-1 renal
[50] = test system: OVCAR-4 ovarian
[51] = test system: HT29 colon
[52] = test system: A549 NSCLC
[53] = test system: LXFL 529 NSCLC
[54] = test system: NCI-H460 lung
[55] = test system: SF-268 CNS
[56] = test system: CCRF-CEM leukemia
[57] = test system: COLO 205 colon
[58] = test system: MDA-MB-435
[59] = test system: PC-3 prostate
[60] = test system: MCF7 breast
[61] = test system: DU-145 prostate
[62] = test system: T-47D breast
[63] = test system: MDA-MB-231 breast
[64] = test system: HS 578T breast
[65] = test system: BT-549 breast
[66] = test system: MDA-N
[67] = test system: NCI/ADR-RES ovarian

Compound CN(C)CCNC(=O)c1cccc2nc3cc(Cl)ccc3nc12 has a TGI [1] of 3.89 µM, a TGI [2] of 6.69 µM and a TGI [3] of 2.86 µM. It also gave a TGI [4] of 4.22 µM, a TGI [5] of 5.14 µM and a TGI [6] of over 63.2 µM. For the same compound, the TGI [7] was 10.7 µM, the TGI [8] was over 31 µM and the TGI [9] was 4.65 µM. The TGI [10] was over 27.8 µM, the TGI [11] was 2.23 µM and the TGI [12] was over 100 µM. It also gave a TGI [13] of 7.57 µM, a TGI [14] of 11.4 µM and a TGI [15] of over 33.6 µM. The TGI [16] was 15 µM, the TGI [17] was 9.08 µM and the TGI [18] was 2.77 µM. The TGI [19] was 16.9 µM, the TGI [20] was 10.5 µM and the TGI [21] was 18.1 µM. The TGI [22] was 13.9 µM, the TGI [23] was 7.62 µM and the TGI [24] was over 100 µM. For the same compound, the TGI [25] was over 40.3 µM, the TGI [26] was over 50.6 µM and the TGI [27] was over 23.7 µM. For the same compound, the TGI [28] was over 29.1 µM, the TGI [29] was 10.7 µM and the TGI [30] was 6.15 µM. The TGI [31] was 20.3 µM, the TGI [32] was 8.69 µM and the TGI [33] was 4.8 µM. For the same compound, the TGI [34] was 9.67 µM, the TGI [35] was 15.2 µM and the TGI [36] was 31.6 µM. The TGI [37] was over 23.8 µM, the TGI [38] was over 21.3 µM and the TGI [39] was 11.5 µM. The TGI [40] was 8.27 µM, the TGI [41] was over 21.9 µM and the TGI [42] was 6.31 µM. The TGI [43] was 4.14 µM, the TGI [44] was 12.4 µM and the TGI [45] was 15.4 µM. It also gave a TGI [46] of 5.61 µM, a TGI [47] of 5.26 µM and a TGI [48] of over 100 µM. It also gave a TGI [49] of over 23.5 µM, a TGI [50] of 8.54 µM and a TGI [51] of 6.22 µM. The TGI [52] was over 26.7 µM and the TGI [53] was over 22.3 µM.

For O=C(Nc1ccc(Cl)cc1Cl)C1C(=O)C(=O)N(c2ccc(Cl)cc2Cl)C1=O (stereo not drawn), the TGI [54] was over 100 µM, the TGI [1] was over 100 µM and the TGI [2] was over 100 µM. It also gave a TGI [3] of over 100 µM, a TGI [4] of over 100 µM and a TGI [5] of 84.1 µM. It also gave a TGI [6] of over 100 µM, a TGI [7] of over 100 µM and a TGI [8] of over 100 µM. The TGI [9] was over 100 µM, the TGI [11] was over 100 µM and the TGI [14] was over 100 µM. It also gave a TGI [15] of over 100 µM, a TGI [55] of over 100 µM and a TGI [16] of over 100 µM. For the same compound, the TGI [17] was over 100 µM, the TGI [19] was over 100 µM and the TGI [20] was over 100 µM. The TGI [21] was over 100 µM, the TGI [22] was over 100 µM and the TGI [23] was over 100 µM. It also gave a TGI [25] of over 100 µM, a TGI [26] of over 100 µM and a TGI [27] of over 100 µM. The TGI [28] was over 100 µM, the TGI [29] was over 100 µM and the TGI [30] was over 100 µM. It also gave a TGI [31] of over 100 µM, a TGI [32] of over 100 µM and a TGI [33] of over 100 µM. For the same compound, the TGI [34] was over 100 µM, the TGI [35] was over 100 µM and the TGI [38] was over 100 µM. It also gave a TGI [39] of over 100 µM, a TGI [40] of over 100 µM and a TGI [41] of over 100 µM. It also gave a TGI [42] of over 100 µM, a TGI [44] of over 100 µM and a TGI [45] of over 100 µM. The TGI [46] was over 100 µM, the TGI [47] was over 100 µM and the TGI [48] was over 100 µM. It also gave a TGI [49] of over 100 µM, a TGI [50] of over 100 µM and a TGI [51] of over 100 µM. For the same compound, the TGI [52] was over 100 µM and the TGI [53] was over 100 µM.

In the case of CC(=O)c1cccc(C)c1C(=O)O, the TGI [54] is reported as over 100 µM, the TGI [1] is reported as over 100 µM and the TGI [2] is reported as over 100 µM. It also gave a TGI [3] of over 100 µM, a TGI [4] of over 100 µM and a TGI [5] of over 100 µM. For the same compound, the TGI [6] was over 100 µM, the TGI [7] was over 100 µM and the TGI [8] was over 100 µM. For the same compound, the TGI [9] was over 100 µM, the TGI [10] was over 100 µM and the TGI [11] was over 100 µM. For the same compound, the TGI [12] was over 100 µM, the TGI [13] was over 100 µM and the TGI [15] was over 100 µM. For the same compound, the TGI [55] was over 100 µM, the TGI [56] was over 100 µM and the TGI [16] was over 100 µM. For the same compound, the TGI [17] was over 100 µM, the TGI [18] was over 100 µM and the TGI [19] was over 100 µM. For the same compound, the TGI [20] was over 100 µM, the TGI [21] was over 100 µM and the TGI [22] was over 100 µM. For the same compound, the TGI [23] was over 100 µM, the TGI [24] was over 100 µM and the TGI [25] was over 100 µM. It also gave a TGI [26] of over 100 µM, a TGI [27] of over 100 µM and a TGI [28] of over 100 µM. The TGI [29] was over 100 µM, the TGI [30] was over 100 µM and the TGI [31] was over 100 µM. It also gave a TGI [32] of over 100 µM, a TGI [33] of over 100 µM and a TGI [34] of over 100 µM. The TGI [35] was over 100 µM, the TGI [36] was over 100 µM and the TGI [38] was over 100 µM. The TGI [39] was over 100 µM, the TGI [40] was over 100 µM and the TGI [41] was over 100 µM. The TGI [42] was over 100 µM, the TGI [43] was over 100 µM and the TGI [44] was over 100 µM. The TGI [45] was over 100 µM, the TGI [46] was over 100 µM and the TGI [47] was over 100 µM. It also gave a TGI [48] of over 100 µM, a TGI [49] of over 100 µM and a TGI [50] of over 100 µM. The TGI [57] was over 100 µM, the TGI [51] was over 100 µM and the TGI [52] was over 100 µM. The TGI [53] was over 100 µM.

COc1ccc(-c2c3c(cc4cc5c(cc24)OCO5)C(=O)OC3)cc1OC showed a TGI [58] of 11.5 µM, a TGI [54] of 15.9 µM and a TGI [59] of 49.7 µM. For the same compound, the TGI [3] was 0.0663 µM, the TGI [4] was over 100 µM and the TGI [5] was 12.4 µM. For the same compound, the TGI [7] was 13.9 µM, the TGI [8] was 13.9 µM and the TGI [9] was over 49.6 µM. The TGI [10] was 0.922 µM, the TGI [11] was 12.1 µM and the TGI [13] was 4.91 µM. For the same compound, the TGI [14] was 24.6 µM, the TGI [15] was 0.68 µM and the TGI [55] was over 48 µM. For the same compound, the TGI [56] was over 52.1 µM, the TGI [60] was 31.4 µM and the TGI [16] was over 100 µM. The TGI [18] was 20.4 µM, the TGI [19] was 52 µM and the TGI [21] was over 75.6 µM. For the same compound, the TGI [22] was over 31.8 µM, the TGI [23] was over 100 µM and the TGI [24] was 1.7 µM. For the same compound, the TGI [61] was over 100 µM, the TGI [25] was over 62.1 µM and the TGI [26] was over 100 µM. The TGI [27] was 11.7 µM, the TGI [28] was 14.1 µM and the TGI [29] was over 53.1 µM. It also gave a TGI [30] of 18.8 µM, a TGI [32] of 5.05 µM and a TGI [33] of 2.92 µM. The TGI [34] was 1.84 µM, the TGI [35] was over 36 µM and the TGI [36] was 9.98 µM. The TGI [37] was over 23.4 µM, the TGI [62] was 3.46 µM and the TGI [39] was 18.3 µM. It also gave a TGI [40] of 9.38 µM, a TGI [41] of 1.16 µM and a TGI [42] of 35.8 µM. The TGI [63] was 25.4 µM, the TGI [64] was 68.8 µM and the TGI [65] was 22.3 µM. It also gave a TGI [66] of 13.3 µM, a TGI [43] of over 36.8 µM and a TGI [44] of 22 µM. For the same compound, the TGI [45] was 44.7 µM, the TGI [46] was 7.16 µM and the TGI [47] was 26.5 µM. The TGI [48] was 5.95 µM, the TGI [49] was over 63.4 µM and the TGI [50] was over 100 µM. It also gave a TGI [57] of 11.4 µM, a TGI [51] of 6.55 µM and a TGI [52] of over 100 µM. For the same compound, the TGI [67] was 22.4 µM.
